The source of these data is patent US8134010B2, “Thiazole-based nitric oxide donors having aryl substituent(s) and uses thereof” (priority 2004, dated 2012).

Assay [1] concerns isolated rat aorta. Briefly: Cross-tolerance studies on aortic rings (GTN / Pet-12 pre-treatment). Type of assay: cell-based. The method, then:
Cross-tolerance studies were conducted using the same technique described above for measuring vasorelaxation of aortic rings from rats. Two groups of aortic rings samples were pre-treated with GTN, then one group was measured for vasorelaxation by GTN and the second group for vasorelaxation by Pet-12, an exemplary NO-donor according to the present invention. For the opposite cross-tolerance studies, two groups of aortic rings samples were pre-treated with Pet-12, then one group was measured for vasorelaxation by GTN and the second group for vasorelaxation by Pet-12.

Assay [2] deals with cyclic-GMP in isolated aorta of rats. Briefly: Induction of in vivo nitrate tolerance (cGMP in isolated aorta of rats pre-treated in vivo). Also noted: species or system rat. The settings on record: rats pre-treated in vivo with the same compound. The protocol: For c-GMP levels and tolerance development, the rat's thoracic aorta was isolated after exposure to the tested compound in vivo, and measured as described above in the in vitro assays.
Male Sprague Dawley rats (220 to 250 grams) were housed under constant temperature and humidity conditions. Light was maintained at a 12/12 light dark cycle. Except for 12 hours before the experiment, when food fasting was initiated, all rats had free access to standard rat pellet diet and tap water. The animals were anesthetized by intraperitoneal injection of ketamine and xylazine combination (50 and 10 milligram per kilogram, respectively). […] The catheters were filled with normal saline solution containing 1000 IU/ml of heparin and plugged with a metal pin. Catheters were externalized to the back of the neck region and secured by a polyester felt disk.
After implantation, the rats were individually housed until they regained their preoperative weight and appeared healthy (3 to 4 days post-operation). At this time point (day 0), an osmotic mini-pump (Alza Corp., Palo Alto, Calif.) delivering constant volume (10 μl/hour) of vehicle or drug was connected to one of the intravenous catheters.
For inducing tolerance to the tested NO-donor according to the present invention, the animals received 200 μg/hour of the tested compound for 16 hours (short-term-induced tolerance). A similar number of animals were processed by the same surgical procedure and received the vehicle alone (10 μl/hour of a solution consisting of 30% ethanol and 30% propylene glycol in sterile distilled water for injection).
At the end of the infusion periods used for the development of tolerance (16 hour), the rats were anesthetized as described above, the two catheters were externalized and the delivering catheters were disconnected from the mini-pump. The abdomen was opened by midline incision and the thoracic aorta were isolated, washed and cleaned from the surrounding tissues. […]

In assay [3] the test system is hypertensive Sprague-Dawley male rats. Briefly: Hypotensive effects: mean arterial pressure during intravenous bolus doses. Type of assay: in vivo, rat. To be noted: rats given phenylephrine. The protocol: Mean arterial pressure (MAP) was monitored and determined during bolus infusion of Pet-2, Pet-3, Pet-7, Pet-8, Pet-12 and Pet-13. Briefly, polyethylene catheters (PE50) were inserted into the carotid artery and into the jugular vein of anesthetized hypertensive Sprague-Dawley male rats (200-300 grams). A blood pressure recorder was placed within the carotid artery. Phenylephrine (0.1 mg) was then injected and the mean arterial blood pressure (MABP) was monitored continuously until a stable baseline was reached. The hypotensive effects of intravenous (iv) bolus doses (0.1 mg of each tested compound) administered intravenously at the jugular vein in minimal volume of vehicle (0.2 ml per dose) were evaluated. Five minutes were allowed between each dose, during which the maximal decrease in MAP was recorded and a dose-response graph comparing the hypotensive effect of the compounds was constructed.

In assay [4] the test system is isolated rat aorta. Briefly: In vitro induction of tolerance to NO releasing compounds (vasorelaxation of pre-exposed aortic rings). Type of assay: cell-based. To be noted: rings pre-treated with epinephrine and then with 0.44 mM of the same compound. The protocol:
Aortic rings were prepared as described hereinabove, and were exposed to 0.44 mM GTN (vehicle was water:ethanol:propyleneglycol at proportional ratio of 1:1:1) for 1 hour before CCRC construction, to thereby induce tolerance to nitroglycerine. At the end of the tolerance induction period, rings were thrice washed with the path buffer (Krebs-bicrbonate) every 15 minutes for the following hour and then CCRC for vasorelaxation on GTN-induced tolerance rings were constructed for GTN (pretreated versus untreated rings, FIG. 15), in order to verify the ability to induce and measure GTN tolerance induction in vitro
Attempted induction of tolerance to the NO-donating compounds of the present invention was performed under the same conditions as for GTN. Thus, in an exemplary experiment, rings were exposed to 0.44 mM solution of Pet-3 in the attempt to induce tolerance for Pet-3. CCRC were then measured for the vasorelaxing effect of Pet-3 on a group of rings which were pre-exposed to Pet-3 as to induce tolerance to Pet-3, and for an untreated control group. The above protocol was repeated with Pet-2, Pet-7, Pet-8, Pet-12, Pet-24, Pet-43, Pet-149 and Pet-152.

The structures appear in SMILES notation. “Also recorded” adds a separate entry of the source.

Consider `Cc1nc(-c2cccnc2)sc1CCO[N+](=O)[O-]` [Pet-12, 3-[4-Methyl-5-(2-nitrooxy-ethyl)-thiazole-2-yl]-pyridine], for which the “vasorelaxation in rings made tolerant to GTN (cross-tolerance)” value in the assay with isolated rat aorta [1] (aorta pre-treated with GTN) was “has no effect on the vasorelaxation capacity of Pet-12; also recorded: absence of tolerance induction effect”. In addition, the “tolerance induction in rings pre-treated with Pet-12 (cross-tolerance)” value in the assay with isolated rat aorta [1] (aorta pre-treated with Pet-12, vasorelaxation by Pet-12 and GTN) is on record as “does not evoke tolerance to itself not to GTN; also recorded: absence of tolerance induction effect”. In assay [2], the “tolerance induction by cyclic-GMP accumulation in aorta of rats pre-treated in vivo” value was “lack of tolerance induction; also recorded: absence of tolerance induction”. Also, in assay [3], the “activity as hypotensive agents (MAP)” value was “high activity”. The “tolerance induction in vitro (vasorelaxation, pre-treated versus control rings)” value in the assay on isolated rat aorta [4] is reported as “absence of tolerance induction”.
